# Measured values reported in US11072592B2, “Small molecules that enable cartilage rejuvenation” (The Regents of the University of California, priority 2015, dated 2021).
# Entries after “also recorded” stand apart in the source; their conditions may differ.
# Legend:
# [1] = system: adult human articular chondrocytes; experiment: Survival / apoptosis (Annexin V) of adult articular chondrocytes; format: cell-based; conditions: for chondrocytes survival in adult explants: LIF 50 ng/mL, CRM-423 10 uM
# Experimental: FIGS. 28A-28I. Small molecule-mediated activation of a fetal-like molecular and functional phenotype in adult articular cartilage. (FIG. 28A) Adult human articular chondrocytes were incubated with or without RCGD 423 and levels of MYC and pSTAT3 were quantified relative to histone H3. (FIG. 28B) Levels of MYC and pSTAT3 protein were measured in pig adult articular chondrocytes to determine the effects of RCGD 423 in a dose- and time-dependent manner; histone H3 was used as a loading control. (FIG. 28C) Migration of adult human articular chondrocytes in a Transwell® assay was assessed in the presence and absence of RCGD 423. (FIG. 28D) Adult human articular chondrocytes were incubated with or without RCGD 423 in hydrogel for 24 hours and then apoptotic cells were quantitated via flow cytometry for Annexin V. (FIG. 28E) Single human adult articular chondrocytes were cultured for 5 weeks with or without stimulation with RCGD 423. (FIG. 28F) Proliferation in explants of adult pig articular cartilage in the absence or presence of RCGD 423 as shown by EdU incorporation. Explants of adult pig articular cartilage were incubated with EdU in the presence or absence of LIF to detect proliferating cells. Scale bars represent 25 μm. (FIG. 28G) Metabolic activity of human adult articular chondrocytes (ECAR and OCR) was assessed in the presence or absence of RCGD 423; the response in these parameters to stimulation with LIF is shown for comparison. […]
# Only early passages of chondrocytes (passage 0-2) were used for experimentation to avoid de-differentiation and loss of cartilage phenotype (Wu et al., 2014). Cartilage explants were made using 1, 2 or 8 mm biopsy punch and wet weight of each explant determined prior to experimentation. […]
# TdT-mediated dUTP nick-end labeling (TUNEL) or EdU assays were performed by using in situ cell death detection kit (TUNEL, Roche Diagnostics GmbH, Germany) or Click-iT® Assay Kit obtained from Invitrogen (Carlsbad, Calif.), respectively, as described in the manufacturer's protocol. […] After staining sections were analyzed using fluorescent microscopy. […]
# [2] = system: adult pig articular cartilage explants; experiment: Proliferation (EdU) and marker expression in adult articular cartilage explants; format: cell-based
# Experimental: FIGS. 26A-26J. LIF/STAT3/MYC signaling is prominent in fetal articular chondrocytes and can activate a fetal-like phenotype in adult cells. (FIG. 26A) Levels of phospho-STAT3 (pSTAT3) and MYC protein were quantitated in human fetal and adult articular chondrocytes relative to histone H3. (FIG. 26B) Effects of soluble LIF receptor (sLIFR) on MYC and pSTAT3 protein levels on fetal articular chondrocytes after 72 hours. (FIG. 26C) Detection of apoptotic cells using TUNEL staining and flow cytometry analysis of fetal articular cartilage explants cultured in the absence (control) or presence of a MYC (10058-F4) or STAT3 (STATTIC) inhibitor for 24 hours. (FIG. 26D) Quantification of proliferating cells via EdU incorporation in fetal articular cartilage explants and also by flow cytometry analysis for BrdU. Scale bars represent 100 μm. (FIG. 26E) Assessment of metabolic activity of human fetal articular chondrocytes cultured in the presence or absence of MYC or STAT3 inhibitors. (FIG. 26F) Migration capacity of fetal articular chondrocytes was assessed using a Transwell® assay in the absence or presence of MYC and STAT3 inhibitors. (FIG. 26G) Protein levels of MYC and pSTAT3 were measured in adult human articular chondrocytes with and without incubation with LIF. Data are shown normalized to histone H3. (FIG. 26H) Migratory capacity of adult human articular chondrocytes in a Transwell® assay measured in the presence or absence of LIF. (FIG. 26I) Single adult human articular chondrocytes were cultured with or without LIF for 5 weeks to allow detection of colony-forming cells. […]
# FIGS. 28A-28I. […] (FIG. 28A) Adult human articular chondrocytes were incubated with or without RCGD 423 and levels of MYC and pSTAT3 were quantified relative to histone H3. (FIG. 28B) Levels of MYC and pSTAT3 protein were measured in pig adult articular chondrocytes to determine the effects of RCGD 423 in a dose- and time-dependent manner; histone H3 was used as a loading control. (FIG. 28C) Migration of adult human articular chondrocytes in a Transwell® assay was assessed in the presence and absence of RCGD 423. […]
Compound,chondrocytes survival in adult explants [1],proliferation of chondrocytes in adult cartilage explants (EdU) [2],"expression of the stem/progenitor cell marker ALDH 1A1 in the surface layer ([2]; adult pig cartilage explants, LIF 50 ng/mL for 3 days)","apoptosis (Annexin V) ([1]; adult human articular chondrocytes in hydrogel, 24 hours)"
LIF: interleukin 6 (IL-6)-class cytokine,increase; also recorded: promoted survival,stimulated proliferation; also recorded: significantly increased,increased expression,
"Brc1ccc(Nc2nc(-c3ccccc3)cs2)cc1 [RCGD 423, N-(4-Bromophenyl)-4-phenyl-1,3-thiazol-2-amine]",increase,increased,,decreased
